In patent US20110212100A1, “METHODS FOR MODULATING DEVELOPMENT AND EXPANSION OF IL-17 EXPRESSING CELLS” (priority 2007, published 2011):
Where “and” joins values, the source holds several entries; their conditions need not be identical. Identical values can stand only once.

Assays:
[1] = system: Xenopus feeding stage tadpoles; assay: Toxicity in Xenopus feeding stage tadpoles; format: in vivo; details: 400 nM HF, 7 days
Method: At concentrations over 80 nM, HF has a variety of non-specific effects on both T-cells and fibroblasts. […] At the recommended tolerated dose for chronic treatment (0.5 mg/day), plasma levels of HF were ˜0.5 ng/ml (1 nM). (de.Jonge et al., Eur J Cancer, vol. 42(12):1768-74 (2006)).

RORγt = RORγt expression during Th17 differentiation (real-time PCR); format: cell-based, mouse; details: 10 nM HF
Method: T cells were harvested at the indicated times following activation, RNA was isolated and quantitative real-time PCR was performed using RORγt-specific primers and taqman probe. RORγt expression was normalized to Gapdh levels, and the data are presented as fold changes relative to naïve T cells.
(§1) Quantitative real-time PCR: T cells were activated as described above, collected at the indicated times and pellets were flash-frozen in liquid nitrogen. Total RNA was obtained by RNeasy (Quiagen, Valencia, Calif.) column purification per manufacturers instructions. RORγt expression was determined after reverse transcription using the message sensor kit (Ambion, Austin, Tex.) per manufacturers instructions and taqman primers and probe as described elsewhere (I. Ivanov, et al., Cell 126, 1121, 2006). Sybrgreen quantitative real-time PCR was performed on T cell RNA samples following reverse transcription via SuperScript II first-strand cDNA synthesis kit (Invitrogen, Carlsbad, Calif.). All PCR data was collected on an iCycler thermal cycler (Biorad, Hercules, Calif.). Primer sequences used for detecting stress response genes are listed below.

[2] = system: TGFβ-induced Smad phosphorylation; assay: TGFβ signaling in T and B cells (Smad phosphorylation, lymphocyte responses to TGFβ); format: cell-based, mouse; details: HF 2.5-40 nM or 10 nM; SB-431542 10 μM
Method: T cells were then activated in the presence or absence of 3 ng/ml. TGFβ. Whole cell extracts were prepared after 1 hour of stimulation and western blot analyses were performed using the indicated antibodies.
Western blotting: Whole cell lysates were generated from T cells activated for the indicated times. For STAT3 and Smad2/3 western blots cells were harvested, washed in PBS and lysed in 50 mM Tris, pH 7.4, 0.1% SDS, 1% Triton-X100, 140 mM NaCl, 1 mM EDTA, 1 mM EGTA supplemented with protease inhibitors tablets (Roche-Germany), 1 mM NaF and 1 mM Na3VO4. For eIF2α and ATF4 western blots, cells were harvested as above and lysed in 50 mM Tris, pH 7.4, 2% SDS, 20% glycerol and 2 mM EDTA supplemented with protease and phosphatase inhibitors as above. All lysates were cleared via centrifugation and 15-30 μg of protein was resolved by SDS-PAGE. Protein was transferred to nitrocellulose membranes, blocked and blotted using specific antibodies. Antibodies used for western blot analysis were anti-phospho-Smad2, anti-STAT3 (pY705), anti-STAT3, anti-eIF2α^pS51, anti-eIF2α, anti-GCN2^pT898, anti-GCN2 (all from cell signaling technology, Danvers, Mass.). Anti-ATF4/CREB2 and anti-β-actin were purchased from Santa Cruz biotechnology (Santa Cruz, Calif.). […]

[3] = system: Asns, Gpt2, eIF4Ebp1 mRNA; assay: Quantitative real-time PCR of AAR-associated genes in T cells; format: cell-based, mouse; details: 10 nM HF, within 4 hours of T cell activation
Method: FIG. 12C is a graph depicting the results of quantitative real-time PCR performed on cDNA generated from resting naïve T cells (TN) or T cells activated for 4 hours in the presence of 10 nM MAZ1310 or 10 nM HF. Asns, Gpt2 or eIF4Ebp1 mRNA expression was normalized to Hprt levels and data are presented as mean values±SD in duplicate samples.
as §1

[4] = system: FoxP3 expression in CD4+ CD25− T cells; assay: Foxp3 (Treg marker) expression in TGFβ/IL-6 treated T cells; format: cell-based, mouse
Method: Low doses of halofuginone (HF) were tested to determine the ability of HF to enhance Treg differentiation, while suppressing Th17 differentiation. Nave. CD4+ T cells (CD4+ CD25−) were isolated from the spleen and peripheral lymph nodes of C57B/6 mice. T cells were then activated using anti-CD3 (0.3 μg/ml) and anti-CD28 (0.5 μg/ml) antibodies either in media alone (row 1, 4), TGFβ alone (3 ng/ml—row 2, 5) or TGFβ (3 ng/ml) plus IL-6 (30 ng/ml) (row 3, 6). […] T cells were cultured for 3 days and CD25 and Foxp3 expression (Treg marker genes) was determine by FACS staining and flow cytometric analyses. Simultaneously, T cells were harvested and re-stimulated for 4 hours using phorbol myristic acetate (PMA; 10 nM), Ionomycin (1 μM) and cytokine secretion was prevented using brefeldin A (20 μg/ml). Following stimulation, the production of IL-17 and IFNγ were determined by intracellular staining and analyzed via flow cytometry. […]
FACS analyses and sorting: All cell surface staining was performed in FACS buffer (PBS/2% FCS/0.1% NaN3) and antibodies were incubated with cells on ice for 20-30 minutes. […] All FACS data was acquired on a FACSCalibur flow cytometer (BD Pharmingen) and analyzed using FlowJo software (Treestar, Inc., Ashland, Oreg.). […]

SMILES: O=C(CC1NCCCC1O)Cn1cnc2cc(Br)c(Cl)cc2c1=O (racemic) [HF, 7-bromo-6-chloro-3-[3-(3-hydroxy-2-piperidinyl)-2-oxopropyl]-4(3H)-quinazolinone]
- toxic effects in tadpoles, in words [1]: does not have detectable toxic effects
- effect on upregulation of RORγt or RORγ during Th17 differentiation, in words (RORγt): did not interfere with the upregulation of RORγt or RORγ
- effect on TGFβ-induced Smad phosphorylation and other lymphocyte responses to TGFβ, in words [2]: inhibited neither TGFβ-induced Smad phosphorylation
- Asns, Gpt2, eIF4Ebp1 mRNA (qPCR), in words [3]: induced
- Foxp3 expression of T cells differentiated in the presence of HF, in words ([4]; 10 nM HF, TGFβ plus IL-6, day 3): enhanced Foxp3 expression
- concentration increasing FoxP3 expression concomitantly with inhibiting IL-17 expression ([4]; TGFβ/IL-6 treated T-cells): 2.5 to 10 nM and 2.2 to 10 nM
